Results reported in patent US20160303184A1, “VANCOMYCIN-SUGAR CONJUGATES AND USES THEREOF” (JAWAHARLAL NEHRU CENTRE FOR ADVANCED SCIENTIFIC RESEARCH …, priority 2013, published 2016).
Values after ≈ are worked out from the molar mass of the structure shown.

Tests used:
MR-VISA = experiment: In-vivo antibacterial activity, neutropenic mouse thigh infection; design: species or system Staphylococcus aureus; conditions: 12 mg/kg i.v., neutropenic mice, 24 h
Protocol: About six-week-old, female CD-1 mice (weight, ˜19-24 g) were used for the experiments. The mice were rendered neutropenic (˜100 […]) by injecting two doses of cyclophosphamide intraperitoneally 4 days (150 mg/kg) and 1 day (100 mg/kg) before the infection experiment. 50 μl of ˜10^7 CFU/ml concentration of the bacterial inoculum (MR-VISA) was injected into the thigh. One hour after inoculation, animals were treated intravenously with saline, vancomycin, linezolid and compound 7 at 12 mg/kg and 24 mg/kg of body weight (24 h total dosage). At 24 h post first treatment, cohorts of animals were euthanized (using ether) and the thighs were collected aseptically. The thigh was weighed (0.7 g-0.9 g) and placed into 10 ml of sterile saline and homogenized. The dilutions of the homogenate were plated onto agar plates, which were incubated overnight at 37° C. The bacterial titer was expressed as log10 CFU/g of thigh weight.

[1] = test system: Vancomycin intermediate resistant S. aureus; experiment: MIC, micro-dilution broth, VISA; type: cell-based; conditions: VISA
Protocol: (§1) All test compounds were assayed in a micro-dilution broth format. Stock solutions were made by serially diluting the compounds using autoclaved millipore water or broth media. The antibacterial activity of the compounds was determined against methicillin-sensitive S. aureus (MSSA), methicillin-resistant S. aureus (MRSA), vancomycin-intermediate-resistant S. aureus (VISA), vancomycin-sensitive E. faecium (VSE) and vancomycin-resistant E. faecium (VRE). Bacteria, to be tested, were grown for about 10 h in the suitable media, MSSA, MRSA and VISA were grown in yeast-dextrose broth (about 1 g of beef extract, about 2 g of yeast extract, about 5 g of peptone and about 5 g of NaCl in about 1000 mL of sterile distilled water (pH-7)). For solid media, about 5% agar was used along with above mentioned composition. VSE and VRE were cultured in brain heart infusion broth (Himedia). The bacterial samples were freeze dried and stored at −80° C. About 5 μL of these stocks were added to about 3 mL of the nutrient broth and the culture was grown for about 6 h at about 37° C. prior to the experiments. This 6 h grown culture gives about 10^9 cfu/mL and this was determined by spread plating method. The 6 h grown culture was diluted to give effective cell concentration of about 10^5 cfu/mL which was then used for determining MIC. Compounds were serially diluted, in sterile water (2 fold dilution is employed) in a way that the working concentration was about 10 μM for MSSA, MRSA, and VSE while for VRE and VISA it was about 100 μM. About 50 μL of these serial dilutions were added to the wells of 96 well plate followed by the addition of about 150 μL of bacterial solution. The plates were then incubated at about 37° C., 150 rpm in the incubator and O.D at 600 nm was recorded at an interval of about 10 h and 24 h using TECAN (Infinite series, M200 pro) Plate Reader. Each concentration had triplicate values and the whole experiment was done at least twice and the MIC value was determined by taking the average of triplicate. O. D. values for each concentration and plotting it against concentration. The data was then subjected to sigmoidal fitting. From the curve the MIC value was determined, as the point in the curve where the O. D. was similar to that of control having no bacteria.

VISA = experiment: Ex-vivo whole blood assay; type: cell-based, S. aureus; conditions: 3 h incubation in 90% human whole blood
Protocol: Ex-vivo whole blood assay was performed to compare the abilities of these compounds to retain activity in complex media. To 30 μL of VISA in saline (0.9% NaCl; 10^6 CFU/mL) 10 μL of test compounds (vancomycin and compound 7) and 270 μL of fresh human whole blood were added and incubated, at 37° C. for about 3 h. After the incubation period, antibacterial activity was determined by finding the bacterial titer in the infected blood.

[2] = test system: Vancomycin-sensitive E. faecium (ATCC 19634); experiment: MIC, micro-dilution broth, VSE; type: cell-based; conditions: Enterococcus faecium, ATCC19634, read-out: MIC VSE
Protocol: as §1

[3] = test system: Vancomycin-resistant E. faecium (VanA, ATCC 51559); experiment: MIC, micro-dilution broth, VRE (VanA); type: cell-based
Protocol: as §1

[4] = test system: Methicillin-resistant S. aureus (ATCC 33591); experiment: MIC, micro-dilution broth, MRSA; type: cell-based; conditions: Staphylococcus aureus, read-out: MIC MRSA
Protocol: as §1

[5] = test system: methicillin-resistant vancomycin-intermediate S. aureus (MR-VISA); experiment: Time-kill assay; type: cell-based; conditions: 2 μM and 4 μM
Protocol: The bactericidal activity was assessed by the kinetics or the rate at which it affects the killing action of the compound. Briefly methicillin-resistant vancomycin-intermediate S. aureus (MR-VISA) grown in Yeast-Dextrose broth. A starting inoculum of 1.6×10^8 CFU/ml was used as initial bacterial colony count. Vancomycin and compound 7 having final concentrations of 2 μM and 4 μM were inoculated with MR-VISA suspensions having starting inocula of 1.6×10^8 CFU/ml. Bacterial suspension containing specified concentrations of the compound along with negative control (which contains only 0.9% Saline) was incubated at 37° C. with shaking. Aliquots (20 μl) were removed from the cultures at different time intervals and were serially diluted 10-fold in 0.9% saline and plated onto sterile Yeast-Dextrose agar medium. The number of viable cells was determined by plating the 10-fold serial dilution of each sample onto Yeast-dextrose agar medium. Plates were then incubated for 24 h at 37° C., CFU was counted and the total bacterial log 10 CFU/ml was determined.

[6] = test system: methicillin-resistant S. haemolyticus clinical isolate; experiment: MIC, clinical isolate of methicillin-resistant S. haemolyticus; type: cell-based; conditions: Staphylococcus haemolyticus, read-out: MIC S. haemolyticus
Systemic toxicity (LD50) = experiment: Systemic toxicity (LD50); design: species or system CD-1 female mice; conditions: female, CD-1, mouse, in vivo, iv, single-dose i.v., mice
Protocol: Systemic toxicity was examined after i.v injection of compound 7 to CD-1 female mice. Each mouse was injected with a 0.2 ml of freshly prepared compound 7 solution in saline. The doses of the compound administered per group were according to OECD guidelines (OECD, 2005).

[7] = test system: Methicillin-sensitive S. aureus (MTCC 737); experiment: MIC, micro-dilution broth, MSSA; type: cell-based; conditions: Staphylococcus aureus, read-out: MIC MSSA
Protocol: as §1

CCCCCCCCCCN[C@]1(C)C[C@H](OC2C(O)[C@@H](O)C(CO)O[C@@H]2Oc2c3cc4cc2Oc2ccc(cc2Cl)[C@@H](O)[C@@H](NC(=O)[C@@H](CC(C)C)NC)C(=O)N[C@@H](CC(N)=O)C(=O)N[C@H]4C(=O)N[C@H]2C(=O)N[C@H](C(=O)N[C@H](C(=O)NCCCNC(=O)[C@H](O)[C@@H](O)[C@H](OC4OC(CO)C(O)C(O)[C@H]4O)[C@H](O)CO)c4cc(O)cc(O)c4-c4cc2ccc4O)[C@H](O)c2ccc(c(Cl)c2)O3)OC(C)[C@@H]1O (stereo partly drawn) [Compound 7]
reduction in bacterial count from the initial titer (MR-VISA): ~3.0 log10 CFU/g | MIC ([1]; Staphylococcus aureus, read-out: MIC VISA): 0.2 µM (≈ 0.397 µg/mL) | fold more active than vancomycin [1]: about 65 fold | bactericidal activity in whole blood (VISA): rapid bactericidal activity | MIC [2]: 0.15 µM (≈ 0.298 µg/mL) | MIC ([3]; Enterococcus faecium, read-out: MIC VRE (VanA)): 1 µM (≈ 1.99 µg/mL) | fold higher activity than vancomycin ([3]; VRE (VanA phenotype)): > 700 fold | MIC [4]: 0.3 µM (≈ 0.596 µg/mL) | killing kinetics [5]: rapid | MIC [6]: 0.41 µM (≈ 0.814 µg/mL) | LD50 at 14 days (Systemic toxicity (LD50)): > 100 mg/kg | MIC [7]: 0.2 µM (≈ 0.397 µg/mL)
